Measurements published in patent US5698411A, “Method for determining activity of enzymes in metabolically active whole cells” (priority 1995, dated 1997).

What was measured:
Assay type in all cases: cell-based, human
lymphocytes [1] = assay: enzyme activity with fluorogenic substrate, normal lymphocytes (Table 3A)
lymphocytes [2] = assay: aberrant enzyme activities in febrile children, lymphocytes (Table 7)
monocytes = assay: aberrant enzyme activities in febrile children, monocytes (Table 7)
granulocytes [3] = assay: aberrant enzyme activities in febrile children, granulocytes (Table 7)
[4] = test system: metabolically active whole cell; assay: substrate panel in normals and HIV + patients, TB infection (Table 4); parameters: unit not given here
Description: A panel of assay compounds are assembled consisting of Ala-aminopeptidase and Lys-aminopeptidase, Dipeptidyl peptidase IV (Ala-Ala)2 rhodamine 110 and Cathepsin D to indicate possible TB infection in AIDS related cases.
A panel Of enzymatic substrates is performed consisting of Ala-aminopeptidase and Lys-aminopeptidase, Dipeptidyl peptidase IV (Ala-Ala)2 rhodamine 110 and Cathepsin D to indicate possible TB infection in AIDS related cases.

lymphocytes [5] = assay: peptidase activity in leukemia and non-leukemia patients, lymphocytes (Table 6C); parameters: unit not given here
Excerpt: (§1) Artificial intelligence was used to analyze data of cellular enzyme functions, and determine normal and disease states. Peptidases were used to distinguish leukemia from non-leukemia (output pattern). For input patterns lymphocyte and granulocyte cell types were used with aminopeptidases, cathepsins and dipeptidylpeptidase enzyme activities. In this Example, illustrated in Tables 6A-6C, three normals and three leukemia patients were used as known output patterns for the neural network to learn (in practice, the larger the learning set the more accurate unknown prediction will be). Unknowns were then presented to the learned algorithm as shown in the test case examples. Clinical diagnosis was confirmed by physicians. The trained neural network was able to correctly classify the leukemia from the non-leukemia.

granulocytes [6] = assay: peptidase activity in leukemia and non-leukemia patients, granulocytes (Table 6C); parameters: unit not given here
Excerpt: as §1

O=C1OC2(c3ccc(OC4O[C@H](CO)[C@H](O)[C@H](O)[C@H]4O)cc3Oc3cc(OC4O[C@H](CO)[C@H](O)[C@H](O)[C@H]4O)ccc32)c2ccccc21 (stereo partly drawn) [GALAC, (D-galactose)2 fluorescein]
NORMAL LEUKOCYTE ENZYME ACTIVITY LYMPHS Mean (lymphocytes [1]): 0.38
aberrant enzyme activity, LYMPHS (lymphocytes [2]; P88 Enteritis): .smallcircle.
aberrant enzyme activity, LYMPHS (lymphocytes [2]; P89 Viral Stomatitis): .smallcircle.
aberrant enzyme activity, LYMPHS (lymphocytes [2]; P92 Adenitis): .smallcircle.
aberrant enzyme activity, LYMPHS (lymphocytes [2]; P97 Pyelonephritis): .smallcircle.
aberrant enzyme activity, LYMPHS (lymphocytes [2]; P103 Viral Syndrome): .smallcircle.
aberrant enzyme activity, MONOS (monocytes; P88 Enteritis): .smallcircle.
aberrant enzyme activity, MONOS (monocytes; P89 Viral Stomatitis): .smallcircle.
aberrant enzyme activity, MONOS (monocytes; P92 Adenitis): .smallcircle.
aberrant enzyme activity, MONOS (monocytes; P97 Pyelonephritis): .smallcircle.
aberrant enzyme activity, MONOS (monocytes; P103 Viral Syndrome): .smallcircle.
aberrant enzyme activity, GRANS (granulocytes [3]; P88 Enteritis): .smallcircle.
aberrant enzyme activity, GRANS (granulocytes [3]; P89 Viral Stomatitis): .smallcircle.
aberrant enzyme activity, GRANS (granulocytes [3]; P92 Adenitis): .smallcircle.
aberrant enzyme activity, GRANS (granulocytes [3]; P97 Pyelonephritis): .smallcircle.
aberrant enzyme activity, GRANS (granulocytes [3]; P103 Viral Syndrome): .smallcircle.

C[C@H](NC(=O)[C@@H](N)CCCCN)C(=O)Nc1ccc2c(c1)Oc1cc(NC(=O)[C@H](C)NC(=O)[C@@H](N)CCCCN)ccc1C21OC(=O)c2ccccc21 [KA-M, (Lys-Ala)2 Rho 110]
NORMAL LEUKOCYTE ENZYME ACTIVITY LYMPHS Mean (lymphocytes [1]): 0.55
aberrant enzyme activity, LYMPHS (lymphocytes [2]; P88 Enteritis): .smallcircle.
aberrant enzyme activity, LYMPHS (lymphocytes [2]; P89 Viral Stomatitis): .smallcircle.
aberrant enzyme activity, LYMPHS (lymphocytes [2]; P92 Adenitis): .smallcircle.
aberrant enzyme activity, LYMPHS (lymphocytes [2]; P95 Viral Syndrome): .smallcircle.
aberrant enzyme activity, LYMPHS (lymphocytes [2]; P96 Viral Syndrome): .smallcircle.
aberrant enzyme activity, LYMPHS (lymphocytes [2]; P97 Pyelonephritis): .smallcircle.
aberrant enzyme activity, LYMPHS (lymphocytes [2]; P99 Viral Syndrome, listed as Lys/Ala-M): + (>0.25 Increase over normal range)
aberrant enzyme activity, LYMPHS (lymphocytes [2]; P102 UTI): .smallcircle.
aberrant enzyme activity, LYMPHS (lymphocytes [2]; P103 Viral Syndrome): .smallcircle.
aberrant enzyme activity, MONOS (monocytes; P88 Enteritis, listed as Lys/Ala-M): - (>0.25 Decrease over normal range)
aberrant enzyme activity, MONOS (monocytes; P89 Viral Stomatitis, listed as Lys/Ala-M): - (>0.25 Decrease over normal range)
aberrant enzyme activity, MONOS (monocytes; P92 Adenitis, listed as Lys/Ala-M): - (>0.25 Decrease over normal range)
aberrant enzyme activity, MONOS (monocytes; P95 Viral Syndrome, listed as Lys/Ala-M): - (>0.25 Decrease over normal range)
aberrant enzyme activity, MONOS (monocytes; P96 Viral Syndrome, listed as Lys/Ala-M): - (>0.25 Decrease over normal range)
aberrant enzyme activity, MONOS (monocytes; P97 Pyelonephritis, listed as Lys/Ala-M): - (>0.25 Decrease over normal range)
aberrant enzyme activity, MONOS (monocytes; P99 Viral Syndrome): .smallcircle.
aberrant enzyme activity, MONOS (monocytes; P102 UTI): .smallcircle.
aberrant enzyme activity, MONOS (monocytes; P103 Viral Syndrome, listed as Lys/Ala-M): - (>0.25 Decrease over normal range)
aberrant enzyme activity, GRANS (granulocytes [3]; P88 Enteritis): .smallcircle.
aberrant enzyme activity, GRANS (granulocytes [3]; P89 Viral Stomatitis): .smallcircle.
aberrant enzyme activity, GRANS (granulocytes [3]; P92 Adenitis): .smallcircle.
aberrant enzyme activity, GRANS (granulocytes [3]; P95 Viral Syndrome): .smallcircle.
aberrant enzyme activity, GRANS (granulocytes [3]; P96 Viral Syndrome): .smallcircle.
aberrant enzyme activity, GRANS (granulocytes [3]; P97 Pyelonephritis): .smallcircle.
aberrant enzyme activity, GRANS (granulocytes [3]; P99 Viral Syndrome): .smallcircle.
aberrant enzyme activity, GRANS (granulocytes [3]; P102 UTI): .smallcircle.
aberrant enzyme activity, GRANS (granulocytes [3]; P103 Viral Syndrome): .smallcircle.

C[C@H](N)C(=O)Nc1ccc2c(c1)Oc1cc(NC(=O)[C@H](C)N)ccc1C21OC(=O)c2ccccc21 [ALA, (Ala)2 Rho 110]
MEAN DELTA FL ([4]; HIV + PATIENTS): 59.0
MEAN DELTA FL ([4]; NORMALS): 132.0
enzyme activity, Lymphs (lymphocytes [5]; J4 11/21/91 acute leuk.): 86.00
enzyme activity, Lymphs (lymphocytes [5]; J4 12/2/91 A L): 68.10
enzyme activity, Lymphs (lymphocytes [5]; J4 12/3/91 acute leuk.): 74.64
enzyme activity, Lymphs (lymphocytes [5]; J5 11/27/91 A M L): 92.44
enzyme activity, Lymphs (lymphocytes [5]; J19 11/27/91 C L L): 47.78
enzyme activity, Lymphs (lymphocytes [5]; J22 12/2/91 A M L): 84.42
enzyme activity, Lymphs (lymphocytes [5]; J22 12/9/91 A M L): 83.48
enzyme activity, Lymphs (lymphocytes [5]; N191 normal): 95.72
enzyme activity, Lymphs (lymphocytes [5]; N192 normal): 103.31
enzyme activity, Lymphs (lymphocytes [5]; N193 normal): 100.50
enzyme activity, Lymphs (lymphocytes [5]; N194 normal): 97.02
enzyme activity, Lymphs (lymphocytes [5]; N195 normal): 118.81
enzyme activity, Lymphs (lymphocytes [5]; N197 normal): 96.36
enzyme activity, Lymphs (lymphocytes [5]; N199 normal): 91.07
enzyme activity, Lymphs (lymphocytes [5]; N200 normal): 101.38
enzyme activity, Lymphs (lymphocytes [5]; N201 normal): 106.72
enzyme activity, Lymphs (lymphocytes [5]; N202 normal): 118.37
enzyme activity, Lymphs (lymphocytes [5]; N206 normal): 122.71
enzyme activity, Lymphs (lymphocytes [5]; P68 tachycardia): 1471.10
enzyme activity, Lymphs (lymphocytes [5]; P69 pancreatic CA): 130.34
enzyme activity, Lymphs (lymphocytes [5]; P70 cirrhosis/hemobilia): 141.87
enzyme activity, Lymphs (lymphocytes [5]; P71 ac. pyelonephritis): 109.26
enzyme activity, Grans (granulocytes [6]; J4 11/21/91 acute leuk.): 193.43
enzyme activity, Grans (granulocytes [6]; J4 12/2/91 A L): 139.53
enzyme activity, Grans (granulocytes [6]; J4 12/3/91 acute leuk.): 138.89
enzyme activity, Grans (granulocytes [6]; J5 11/27/91 A M L): 194.85
enzyme activity, Grans (granulocytes [6]; J19 11/27/91 C L L): 143.11
enzyme activity, Grans (granulocytes [6]; J22 12/2/91 A M L): 157.12
enzyme activity, Grans (granulocytes [6]; J22 12/9/91 A M L): 157.48
enzyme activity, Grans (granulocytes [6]; N191 normal): 177.32
enzyme activity, Grans (granulocytes [6]; N192 normal): 154.84
enzyme activity, Grans (granulocytes [6]; N193 normal): 178.64
enzyme activity, Grans (granulocytes [6]; N194 normal): 164.00
enzyme activity, Grans (granulocytes [6]; N195 normal): 221.28
enzyme activity, Grans (granulocytes [6]; N197 normal): 188.20
enzyme activity, Grans (granulocytes [6]; N199 normal): 157.30
enzyme activity, Grans (granulocytes [6]; N200 normal): 171.06
enzyme activity, Grans (granulocytes [6]; N201 normal): 206.06
enzyme activity, Grans (granulocytes [6]; N202 normal): 201.17
enzyme activity, Grans (granulocytes [6]; N206 normal): 232.57
enzyme activity, Grans (granulocytes [6]; P68 tachycardia): 276.07
enzyme activity, Grans (granulocytes [6]; P69 pancreatic CA): 204.02
enzyme activity, Grans (granulocytes [6]; P70 cirrhosis/hemobilia): 236.23
enzyme activity, Grans (granulocytes [6]; P71 ac. pyelonephritis): 185.37
aberrant enzyme activity, LYMPHS (lymphocytes [2]; P88 Enteritis): .smallcircle.
aberrant enzyme activity, LYMPHS (lymphocytes [2]; P89 Viral Stomatitis): .smallcircle.
aberrant enzyme activity, LYMPHS (lymphocytes [2]; P92 Adenitis): .smallcircle.
aberrant enzyme activity, LYMPHS (lymphocytes [2]; P97 Pyelonephritis): .smallcircle.
aberrant enzyme activity, LYMPHS (lymphocytes [2]; P102 UTI): .smallcircle.
aberrant enzyme activity, LYMPHS (lymphocytes [2]; P103 Viral Syndrome): .smallcircle.
aberrant enzyme activity, MONOS (monocytes; P88 Enteritis): .smallcircle.
aberrant enzyme activity, MONOS (monocytes; P89 Viral Stomatitis): .smallcircle.
aberrant enzyme activity, MONOS (monocytes; P92 Adenitis): + (>0.25 Increase over normal range)
aberrant enzyme activity, MONOS (monocytes; P97 Pyelonephritis): + (>0.25 Increase over normal range)
aberrant enzyme activity, MONOS (monocytes; P102 UTI): + (>0.25 Increase over normal range)
aberrant enzyme activity, MONOS (monocytes; P103 Viral Syndrome): .smallcircle.
aberrant enzyme activity, GRANS (granulocytes [3]; P88 Enteritis): .smallcircle.
aberrant enzyme activity, GRANS (granulocytes [3]; P89 Viral Stomatitis): .smallcircle.
aberrant enzyme activity, GRANS (granulocytes [3]; P92 Adenitis): + (>0.25 Increase over normal range)
aberrant enzyme activity, GRANS (granulocytes [3]; P97 Pyelonephritis): + (>0.25 Increase over normal range)
aberrant enzyme activity, GRANS (granulocytes [3]; P102 UTI): .smallcircle.
aberrant enzyme activity, GRANS (granulocytes [3]; P103 Viral Syndrome): .smallcircle.

NCCCC[C@H](N)C(=O)Nc1ccc2c(c1)Oc1cc(NC(=O)[C@@H](N)CCCCN)ccc1C21OC(=O)c2ccccc21 [LYS, (H-L-Lys)2 Rho 110 .4TFA]
MEAN DELTA FL ([4]; HIV + PATIENTS): 7.4
MEAN DELTA FL ([4]; NORMALS): 10.5
enzyme activity, Lymphs (lymphocytes [5]; J4 11/21/91 acute leuk.): 0.77
enzyme activity, Lymphs (lymphocytes [5]; J19 11/27/91 C L L): 0.98
enzyme activity, Lymphs (lymphocytes [5]; J22 12/2/91 A M L): 0.74
enzyme activity, Lymphs (lymphocytes [5]; J22 12/9/91 A M L): 1.20
enzyme activity, Lymphs (lymphocytes [5]; N192 normal): 0.56
enzyme activity, Lymphs (lymphocytes [5]; N193 normal): 0.52
enzyme activity, Lymphs (lymphocytes [5]; N194 normal): 0.93
enzyme activity, Lymphs (lymphocytes [5]; N197 normal): 0.70
enzyme activity, Lymphs (lymphocytes [5]; N199 normal): 0.33
enzyme activity, Lymphs (lymphocytes [5]; N200 normal): 0.90
enzyme activity, Lymphs (lymphocytes [5]; N202 normal): 0.71
enzyme activity, Lymphs (lymphocytes [5]; P71 ac. pyelonephritis): 0.91
enzyme activity, Grans (granulocytes [6]; J22 12/9/91 A M L): 1.90
enzyme activity, Grans (granulocytes [6]; N191 normal): 1.20
enzyme activity, Grans (granulocytes [6]; N192 normal): 1.20
enzyme activity, Grans (granulocytes [6]; N199 normal): 0.95
aberrant enzyme activity, LYMPHS (lymphocytes [2]; P92 Adenitis): .smallcircle.
aberrant enzyme activity, LYMPHS (lymphocytes [2]; P97 Pyelonephritis): .smallcircle.
aberrant enzyme activity, LYMPHS (lymphocytes [2]; P103 Viral Syndrome): .smallcircle.
aberrant enzyme activity, MONOS (monocytes; P97 Pyelonephritis): .smallcircle.
aberrant enzyme activity, GRANS (granulocytes [3]; P103 Viral Syndrome): .smallcircle.
